Test results from patent publication US11149037B2, “Pyrazole MAGL inhibitors” (H. Lundbeck A/S, priority 2017, dated 2021).

Tests used:
Type in all cases: biochemical
FAAH [1] = molecular target: FAAH (Homo sapiens (Human), UniProt O00519); assay: In vitro competitive activity-based protein profiling, human proteomes (prefrontal cortex or PC3 cell membrane fractions); settings: human proteome; for inhibition at 1 µM: read-out: FAAH % inh. 1 μM (human)
How it was run: (§1)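 Activity of MAGL and FAAH was quantified from fluorescent gel band intensities. Beforehand, inhibitors at several concentrations competed against subsequent probe labelling (FP-Rh, JW912 or HT-01) in species-matched proteomes, each step 30 min at 37° C.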

MAGL [2] = molecular target: MAGL (Homo sapiens (Human), UniProt Q99685); assay: as above; settings: human proteome; for inhibition at 1 µM: read-out: MAGL % inh. 1 μM (human); for inhibition at 10 µM: read-out: MAGL % inh. (human) @ 10 μM
How it was run: as §1

FAAH [3] = molecular target: FAAH (Mus musculus (Mouse), UniProt O08914); assay: In vitro competitive activity-based protein profiling, mouse proteomes (brain membrane fraction or cell lysates); settings: mouse proteome, read-out: FAAH % inh. 1 μM (mouse)
How it was run: as §1

MAGL [4] = molecular target: MAGL (Mus musculus (Mouse), UniProt O35678); assay: as above; settings: mouse proteome, read-out: MAGL % inh. 1 μM (mouse)
How it was run: as §1

Sequence of FAAH (Mus musculus (Mouse), UniProt O08914) (O08914 whole entry): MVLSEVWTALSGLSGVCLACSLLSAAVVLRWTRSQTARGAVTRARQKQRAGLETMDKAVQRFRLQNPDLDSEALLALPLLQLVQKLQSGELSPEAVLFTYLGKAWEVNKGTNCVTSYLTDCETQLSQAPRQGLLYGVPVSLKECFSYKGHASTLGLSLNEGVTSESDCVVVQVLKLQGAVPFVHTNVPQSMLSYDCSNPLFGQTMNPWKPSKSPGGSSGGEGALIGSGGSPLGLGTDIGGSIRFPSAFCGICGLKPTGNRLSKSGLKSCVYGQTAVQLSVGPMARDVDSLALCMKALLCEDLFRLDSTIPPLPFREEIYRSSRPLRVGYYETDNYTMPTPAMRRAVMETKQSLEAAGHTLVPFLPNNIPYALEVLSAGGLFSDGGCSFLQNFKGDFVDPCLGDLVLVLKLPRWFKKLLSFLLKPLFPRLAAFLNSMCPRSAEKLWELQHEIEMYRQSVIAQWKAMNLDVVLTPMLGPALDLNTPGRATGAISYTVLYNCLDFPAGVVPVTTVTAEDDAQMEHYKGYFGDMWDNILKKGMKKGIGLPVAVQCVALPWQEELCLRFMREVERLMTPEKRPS
Sequence of FAAH (Homo sapiens (Human), UniProt O00519) (O00519 whole entry): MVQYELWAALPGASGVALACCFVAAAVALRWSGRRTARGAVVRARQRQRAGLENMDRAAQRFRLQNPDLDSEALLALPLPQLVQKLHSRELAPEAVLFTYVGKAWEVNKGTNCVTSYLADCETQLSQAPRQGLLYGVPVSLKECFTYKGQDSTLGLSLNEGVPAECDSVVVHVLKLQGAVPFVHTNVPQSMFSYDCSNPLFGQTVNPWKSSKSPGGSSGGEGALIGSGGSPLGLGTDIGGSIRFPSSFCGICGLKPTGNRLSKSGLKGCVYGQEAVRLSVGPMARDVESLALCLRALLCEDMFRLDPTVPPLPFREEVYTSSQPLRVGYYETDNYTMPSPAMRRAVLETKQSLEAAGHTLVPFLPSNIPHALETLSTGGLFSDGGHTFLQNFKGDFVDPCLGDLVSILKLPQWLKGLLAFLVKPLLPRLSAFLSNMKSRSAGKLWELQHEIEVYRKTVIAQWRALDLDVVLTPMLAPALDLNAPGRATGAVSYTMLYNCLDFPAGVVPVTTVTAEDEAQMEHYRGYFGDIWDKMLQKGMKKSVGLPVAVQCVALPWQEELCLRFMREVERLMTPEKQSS
Sequence of MAGL (Homo sapiens (Human), UniProt Q99685) (Q99685 whole entry): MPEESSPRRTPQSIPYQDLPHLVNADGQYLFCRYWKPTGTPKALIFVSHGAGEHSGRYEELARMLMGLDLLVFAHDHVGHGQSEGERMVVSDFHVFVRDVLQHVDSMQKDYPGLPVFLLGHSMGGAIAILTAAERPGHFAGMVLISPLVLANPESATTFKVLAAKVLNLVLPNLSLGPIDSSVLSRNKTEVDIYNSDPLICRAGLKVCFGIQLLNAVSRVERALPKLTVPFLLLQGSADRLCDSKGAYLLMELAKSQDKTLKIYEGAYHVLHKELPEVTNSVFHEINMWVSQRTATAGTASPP
Sequence of MAGL (Mus musculus (Mouse), UniProt O35678) (O35678 whole entry): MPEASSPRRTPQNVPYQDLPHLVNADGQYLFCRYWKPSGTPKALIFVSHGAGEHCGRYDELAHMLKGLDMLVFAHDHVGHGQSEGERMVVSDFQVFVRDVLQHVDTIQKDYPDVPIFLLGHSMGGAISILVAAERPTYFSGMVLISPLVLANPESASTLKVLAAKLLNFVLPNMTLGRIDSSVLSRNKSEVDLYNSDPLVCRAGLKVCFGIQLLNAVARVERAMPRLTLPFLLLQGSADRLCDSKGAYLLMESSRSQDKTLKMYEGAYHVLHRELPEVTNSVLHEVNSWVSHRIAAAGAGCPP

For CS(=O)(=O)Nc1ccn(C(=O)N2CCC3(CCN(Cc4ccc(C(F)(F)F)cc4N4C5CCC4COC5)C3)CC2)n1 [Example 74, N-(1-(2-(2-(3-Oxa-8-azabicyclo[3.2.1]octan-8-yl)-4-(trifluoromethyl)benzyl)-2,8-diazaspiro[4.5]decane-8-carbonyl)-1H-pyrazol-3-yl)methanesulfonamide], the inhibition at 1 µM (FAAH [1]) was 0 to 25%, the IC50 (FAAH [1]) was 1 to 10 µM and the inhibition at 1 µM (MAGL [2]) was greater than 75%. For the same compound, the IC50 (MAGL [2]) was less than 0.1 µM, the inhibition at 1 µM (FAAH [3]) was 0 to 25% and the inhibition at 1 µM (MAGL [4]) was greater than 75%.
Compound CS(=O)(=O)Nc1ccn(C(=O)N2CCN(Cc3ccc(C(N)=O)c(C(F)(F)F)c3)CC2)n1 [Example 10, 4-((4-(3-(methylsulfonamido)-1H-pyrazole-1-carbonyl)piperazin-1-yl)methyl)-2-(trifluoromethyl)benzamide] has an inhibition at 1 µM (FAAH [1]) of 0 to 25%, an inhibition at 10 µM (MAGL [2]) of 50 to 75% and an inhibition at 1 µM (FAAH [3]) of 0 to 25%. The inhibition at 1 µM (MAGL [4]) was 0 to 25%.
Compound CC(=O)Nc1ccn(C(=O)N2CCC3(CC2)CN(Cc2ccc(C(N)=O)c(C(F)(F)F)c2)C3)n1 [Example 126, 4-((7-(3-Acetamido-1H-pyrazole-1-carbonyl)-2,7-diazaspiro[3.5]nonan-2-yl)methyl)-2-(trifluoromethyl)benzamide] has an inhibition at 1 µM (FAAH [1]) of 0 to 25%, an inhibition at 1 µM (MAGL [2]) greater than 75% and an inhibition at 1 µM (FAAH [3]) of 0 to 25%. It also gave an inhibition at 1 µM (MAGL [4]) greater than 75%.
With CS(=O)(=O)Nc1ccn(C(=O)N2CCN(Cc3cc4ccccc4s3)CC2)n1 [Example 54, N-(1-(4-(Benzo[b]thiophen-2-ylmethyl)piperazine-1-carbonyl)-1H-pyrazol-3-yl)methanesulfonamide] the inhibition at 1 µM (FAAH [1]) was 0 to 25%, the inhibition at 1 µM (MAGL [2]) was greater than 75% and the inhibition at 1 µM (FAAH [3]) was 0 to 25%. It also gave an inhibition at 1 µM (MAGL [4]) greater than 75%.
For CCN1CC2CN(c3cc(CN4CCN(C(=O)n5ccc(NS(C)(=O)=O)n5)CC4)ccc3Cl)CC2C1 (centres unmarked) [Example 153, N-(1-(4-(4-Chloro-3-(5-ethylhexahydropyrrolo[3,4-c]pyrrol-2(1H)-yl)benzyl)piperazine-1-carbonyl)-1H-pyrazol-3-yl)methanesulfonamide], the inhibition at 1 µM (FAAH [1]) was 0 to 25%, the inhibition at 1 µM (MAGL [2]) was greater than 75% and the inhibition at 1 µM (FAAH [3]) was 0 to 25%. For the same compound, the inhibition at 1 µM (MAGL [4]) was 50 to 75%.
Work on CS(=O)(=O)Nc1ccn(C(=O)N2CCN(Cc3cccnc3N3CCCC3)CC2)n1 [Example 81, N-(1-(4-((2-(Pyrrolidin-1-yl)pyridin-3-yl)methyl)piperazine-1-carbonyl)-1H-pyrazol-3-yl)methanesulfonamide] yielded an inhibition at 1 µM (FAAH [1]) of 0 to 25%, an inhibition at 1 µM (MAGL [2]) greater than 75% and an inhibition at 1 µM (FAAH [3]) of 0 to 25%. For the same compound, the inhibition at 1 µM (MAGL [4]) was 50 to 75%.
For CS(=O)(=O)Nc1ccn(C(=O)N2CCC3(CCN(Cc4ccccc4Cl)C3)CC2)n1 [Example 162, N-(1-(2-(2-Chlorobenzyl)-2,8-diazaspiro[4.5]decane-8-carbonyl)-1H-pyrazol-3-yl)methanesulfonamide], the inhibition at 1 µM (FAAH [1]) was 0 to 25%, the inhibition at 1 µM (MAGL [2]) was greater than 75% and the inhibition at 1 µM (FAAH [3]) was 0 to 25%. The inhibition at 1 µM (MAGL [4]) was 0 to 25%.
Compound CC(=O)Nc1ccn(C(=O)N2CCC3(CCN(Cc4cc(C(F)(F)F)cc(C5(C(=O)O)CCCC5)c4)C3)CC2)n1 [Example 25, 1-(3-((8-(3-Acetamido-1H-pyrazole-1-carbonyl)-2,8-diazaspiro[4.5]decan-2-yl)methyl)-5-(trifluoromethyl)phenyl)cyclopentane-1-carboxylic acid] has an inhibition at 1 µM (FAAH [1]) of 0 to 25%, an IC50 (FAAH [1]) of 1 to 10 µM and an inhibition at 1 µM (MAGL [2]) greater than 75%. For the same compound, the IC50 (MAGL [2]) was less than 0.1 µM, the inhibition at 1 µM (FAAH [3]) was 0 to 25% and the inhibition at 1 µM (MAGL [4]) was greater than 75%.
For CN(Cc1ccc(N2CCCC2)cc1C(F)(F)F)[C@H]1C[C@@H]2CN(C(=O)n3ccc(NS(C)(=O)=O)n3)C[C@@H]2C1 [Example 50, N-(1-((3aR,5r,6aS)-5-(Methyl(4-(pyrrolidin-1-yl)-2-(trifluoromethyl)benzyl)amino)octahydrocyclopenta[c]pyrrole-2-carbonyl)-1H-pyrazol-3-yl)methanesulfonamide], the inhibition at 1 µM (FAAH [1]) was 0 to 25%, the inhibition at 1 µM (MAGL [2]) was 50 to 75% and the inhibition at 1 µM (FAAH [3]) was greater than 75%. For the same compound, the inhibition at 1 µM (MAGL [4]) was 50 to 75%.
For CS(=O)(=O)Nc1ccn(C(=O)N2CCN(Cc3ccc(Cl)c(N4CC[C@@H](F)C4)c3)CC2)n1 [Example 122, (R)-N-(1-(4-(4-Chloro-3-(3-fluoropyrrolidin-1-yl)benzyl)piperazine-1-carbonyl)-1H-pyrazol-3-yl)methanesulfonamide], the inhibition at 1 µM (FAAH [1]) was 0 to 25%, the inhibition at 1 µM (MAGL [2]) was greater than 75% and the inhibition at 1 µM (FAAH [3]) was 0 to 25%. It also gave an inhibition at 1 µM (MAGL [4]) greater than 75%.
CS(=O)(=O)Nc1ccn(C(=O)N2CCC(Oc3ccc(Cl)c(C4CCCC4)c3)CC2)n1 [Example 21, N-(1-(4-(4-chloro-3-cyclopentylphenoxy)piperidine-1-carbonyl)-1H-pyrazol-3-yl)methanesulfonamide] showed an inhibition at 1 µM (FAAH [1]) of 0 to 25%, an inhibition at 1 µM (MAGL [2]) greater than 75% and an inhibition at 1 µM (FAAH [3]) of 0 to 25%. The inhibition at 1 µM (MAGL [4]) was greater than 75%.
For CC(=O)Nc1ccn(C(=O)N2CCC3(CCCN3Cc3cc4cc(Cl)c(Cl)cc4[nH]3)CC2)n1 [Example 43, N-(1-(1-((5,6-Dichloro-1H-indol-2-yl)methyl)-1,8-diazaspiro[4.5]decane-8-carbonyl)-1H-pyrazol-3-yl)acetamide], the inhibition at 1 µM (FAAH [1]) was 0 to 25%, the IC50 (FAAH [1]) was 1 to 10 µM and the inhibition at 1 µM (MAGL [2]) was greater than 75%. It also gave an IC50 (MAGL [2]) of less than 0.1 µM, an inhibition at 1 µM (FAAH [3]) of 0 to 25% and an inhibition at 1 µM (MAGL [4]) greater than 75%.
Cc1cc(CN2CCCC23CCN(C(=O)n2ccc(NC(=O)C4CC4)n2)CC3)ccc1Cl [Example 83, N-(1-(1-(4-Chloro-3-methylbenzyl)-1,8-diazaspiro[4.5]decane-8-carbonyl)-1H-pyrazol-3-yl)cyclopropanecarboxamide] gave an inhibition at 1 µM (FAAH [1]) of 0 to 25%, an inhibition at 1 µM (MAGL [2]) greater than 75% and an inhibition at 1 µM (FAAH [3]) of 0 to 25%. The inhibition at 1 µM (MAGL [4]) was greater than 75%.
Work on C[C@@H]1CN(Cc2ccc(Cl)c(N3CCC(F)CC3)c2)CCN1C(=O)n1ccc(NS(C)(=O)=O)n1 [Example 142, (R)-N-(1-(4-(4-Chloro-3-(4-fluoropiperidin-1-yl)benzyl)-2-methylpiperazine-1-carbonyl)-1H-pyrazol-3-yl)methanesulfonamide] yielded an inhibition at 1 µM (FAAH [1]) of 0 to 25%, an inhibition at 1 µM (MAGL [2]) greater than 75% and an inhibition at 1 µM (FAAH [3]) of 0 to 25%. For the same compound, the inhibition at 1 µM (MAGL [4]) was greater than 75%.
CS(=O)(=O)Nc1ccn(C(=O)N2CCN(Cc3ccc(C(F)(F)F)cc3S(=O)(=O)C3CC3)CC2)n1 [Example 89, N-(1-(4-(2-(Cyclopropylsulfonyl)-4-(trifluoromethyl)benzyl)piperazine-1-carbonyl)-1H-pyrazol-3-yl)methanesulfonamide] was tested, and the inhibition at 1 µM (FAAH [1]) was 0 to 25%, the inhibition at 1 µM (MAGL [2]) was greater than 75% and the inhibition at 1 µM (FAAH [3]) was 0 to 25%. For the same compound, the inhibition at 1 µM (MAGL [4]) was greater than 75%.
CC(=O)Nc1ccn(C(=O)N2CC3CN(Cc4cc(F)cc(Cl)c4)CC3C2)n1 (centres unmarked) [Example 145, N-(1-(5-(3-Chloro-5-fluorobenzyl)octahydropyrrolo[3,4-c]pyrrole-2-carbonyl)-1H-pyrazol-3-yl)acetamide] gave an inhibition at 1 µM (FAAH [1]) greater than 75%, an IC50 (FAAH [1]) of 0.1 to 1 µM and an inhibition at 1 µM (MAGL [2]) greater than 75%. The IC50 (MAGL [2]) was less than 0.1 µM, the inhibition at 1 µM (FAAH [3]) was greater than 75% and the inhibition at 1 µM (MAGL [4]) was greater than 75%.
CS(=O)(=O)Nc1ccn(C(=O)N2CC3CN(Cc4ccc(Oc5ccc(Cl)cc5)cc4)CC3C2)n1 (centres unmarked) [Example 40, N-(1-(5-(4-(4-Chlorophenoxy)benzyl)octahydropyrrolo[3,4-c]pyrrole-2-carbonyl)-1H-pyrazol-3-yl)methanesulfonamide] was tested, and the inhibition at 1 µM (FAAH [1]) was 50 to 75%, the inhibition at 1 µM (MAGL [2]) was 25 to 50% and the inhibition at 1 µM (FAAH [3]) was greater than 75%. The inhibition at 1 µM (MAGL [4]) was 25 to 50%.
CC(=O)Nc1ccn(C(=O)N2CC3CN(Cc4ccc(N5CCCC5)cc4C(F)(F)F)CC3C2)n1 (centres unmarked) [Example 121, N-(1-(5-(4-(Pyrrolidin-1-yl)-2-(trifluoromethyl)benzyl)octahydropyrrolo[3,4-c]pyrrole-2-carbonyl)-1H-pyrazol-3-yl)acetamide] showed an inhibition at 1 µM (FAAH [1]) greater than 75%, an IC50 (FAAH [1]) of 0.1 to 1 µM and an inhibition at 1 µM (MAGL [2]) greater than 75%. The IC50 (MAGL [2]) was less than 0.1 µM, the inhibition at 1 µM (FAAH [3]) was greater than 75% and the inhibition at 1 µM (MAGL [4]) was greater than 75%.
CS(=O)(=O)Nc1ccn(C(=O)N2CCN(Cc3cc4cc(F)ccc4[nH]3)CC2)n1 [Example 107, N-(1-(4-((5-Fluoro-1H-indol-2-yl)methyl)piperazine-1-carbonyl)-1H-pyrazol-3-yl)methanesulfonamide] showed an inhibition at 1 µM (FAAH [1]) of 0 to 25%, an inhibition at 1 µM (MAGL [2]) greater than 75% and an inhibition at 1 µM (FAAH [3]) of 0 to 25%. It also gave an inhibition at 1 µM (MAGL [4]) greater than 75%.
In the case of CS(=O)(=O)Nc1ccn(C(=O)N2CCC(Oc3ccc(C(F)(F)F)nc3N3CCCC3)CC2)n1 [Example 95, N-(1-(4-((2-(Pyrrolidin-1-yl)-6-(trifluoromethyl)pyridin-3-yl)oxy)piperidine-1-carbonyl)-1H-pyrazol-3-yl)methanesulfonamide], the inhibition at 1 µM (FAAH [1]) is reported as 0 to 25%, the inhibition at 1 µM (MAGL [2]) is reported as greater than 75% and the inhibition at 1 µM (FAAH [3]) is reported as 0 to 25%. The inhibition at 1 µM (MAGL [4]) was greater than 75%.
In the case of CS(=O)(=O)Nc1ccn(C(=O)N2CCC3(CCCN3Cc3ccc(C(F)(F)F)cc3NCCCC(=O)O)CC2)n1 [Example 1, 4-((2-((8-(3-(methylsulfonamido)-1H-pyrazole-1-carbonyl)-1,8-diazaspiro[4.5]decan-1-yl)methyl)-5-(trifluoromethyl)phenyl)amino)butanoic acid], the inhibition at 1 µM (FAAH [1]) is reported as 0 to 25%, the inhibition at 10 µM (MAGL [2]) is reported as greater than 75% and the inhibition at 1 µM (FAAH [3]) is reported as 0 to 25%. For the same compound, the inhibition at 1 µM (MAGL [4]) was 0 to 25%.
Work on CS(=O)(=O)Nc1ccn(C(=O)N2CC3CN(Cc4cccc(OC(F)(F)F)c4)CC3C2)n1 (centres unmarked) [Example 115, N-(1-(5-(3-(Trifluoromethoxy)benzyl)octahydropyrrolo[3,4-c]pyrrole-2-carbonyl)-1H-pyrazol-3-yl)methanesulfonamide] yielded an inhibition at 1 µM (FAAH [1]) of 25 to 50%, an inhibition at 1 µM (MAGL [2]) greater than 75% and an inhibition at 1 µM (FAAH [3]) greater than 75%. It also gave an inhibition at 1 µM (MAGL [4]) of 25 to 50%.
